Where two headings read alike, the source gives them in different places.
Assays:
[1] = target: human CB1 receptor (hCB1) (Homo sapiens, UniProt P21554); assay: cell-based; format: cell-based; conditions: for +/− HCB1: agonist or inverse agonist at hCB1
Summary of the method: (§1)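 Agonism or inverse agonism was assessed as change in intracellular cAMP in CHO-K1 cells expressing human CB1 or rat CB2 (genomic DNA, pcDNA3.1).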

rat CB2 receptor (rCB2) = target: T1, rat CB2 receptor (rCB2) (Rattus norvegicus, UniProt Q9QZN9); assay: cell-based; format: cell-based; conditions: for +/− RCB2: agonist or inverse agonist at rCB2
T1 sequence (Q9QZN9 1-360): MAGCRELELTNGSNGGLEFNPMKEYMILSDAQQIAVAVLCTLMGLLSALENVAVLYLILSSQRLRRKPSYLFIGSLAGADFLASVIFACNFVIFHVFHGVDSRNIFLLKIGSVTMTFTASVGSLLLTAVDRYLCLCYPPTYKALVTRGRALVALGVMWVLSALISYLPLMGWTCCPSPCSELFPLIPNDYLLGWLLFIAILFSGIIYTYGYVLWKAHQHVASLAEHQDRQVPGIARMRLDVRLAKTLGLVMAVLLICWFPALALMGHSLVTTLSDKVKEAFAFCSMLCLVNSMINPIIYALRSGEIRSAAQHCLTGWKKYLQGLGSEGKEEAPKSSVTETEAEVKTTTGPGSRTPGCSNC
Summary of the method: as §1

[2] = groups >100 nM-10 μM and >10 μM, cAMP, CHO-K1 hCB1, read-out: EC50 HCB1

Sequence of human CB1 receptor (hCB1) (P21554 whole entry): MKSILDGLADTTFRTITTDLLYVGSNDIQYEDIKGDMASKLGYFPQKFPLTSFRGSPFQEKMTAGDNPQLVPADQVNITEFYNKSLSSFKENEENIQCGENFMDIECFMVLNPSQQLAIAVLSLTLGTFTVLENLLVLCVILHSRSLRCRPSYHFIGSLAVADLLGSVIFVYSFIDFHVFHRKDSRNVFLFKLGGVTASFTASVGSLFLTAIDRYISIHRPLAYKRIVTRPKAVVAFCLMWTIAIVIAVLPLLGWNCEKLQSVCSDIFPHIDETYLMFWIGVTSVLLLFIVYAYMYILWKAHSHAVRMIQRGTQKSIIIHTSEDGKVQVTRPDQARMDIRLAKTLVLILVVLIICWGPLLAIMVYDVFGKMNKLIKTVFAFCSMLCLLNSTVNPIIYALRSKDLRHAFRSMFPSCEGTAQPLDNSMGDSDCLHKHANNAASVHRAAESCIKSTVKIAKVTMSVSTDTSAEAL

Row | SMILES | +/− RCB2 (rat CB2 receptor (rCB2)) | EC50 [1] [nM] | EC50 (rat CB2 receptor (rCB2)) [nM] | also measured
1 | CN1CCCn2c(-c3cc(F)ccc3F)nc(C(=O)N[C@H](C(N)=O)C(C)(C)C)c2C1 [Compound 575, (S)-N-(1-amino-3,3-dimethyl-1-oxobutan-2-yl)-3-(2,5-difluorophenyl)-8-methyl-6,7,8,9-tetrahydro-5H-imidazo[1,5-a][1,4]diazepine-1-carboxamide] | + |  |  | +/− HCB1 [1]: +
2 | CNC(=O)[C@@H](NC(=O)c1nc(-c2cccc(F)c2F)n2c1CN(C)CCC2)C(C)(C)C [Compound 369, (S)-3-(2,3-difluorophenyl)-N-(3,3-dimethyl-1-(methylamino)-1-oxobutan-2-yl)-8-methyl-6,7,8,9-tetrahydro-5H-imidazo[1,5-a][1,4]diazepine-1-carboxamide] | + | > 10000 |  | 
3 | CNC(=O)[C@@H](NC(=O)c1nc(C2CCCCC2)n2c1CN(C)CCC2)C(C)(C)C [Compound 487, (S)-3-cyclohexyl-N-(3,3-dimethyl-1-(methylamino)-1-oxobutan-2-yl)-8-methyl-6,7,8,9-tetrahydro-5H-imidazo[1,5-a][1,4]diazepine-1-carboxamide] | + | > 10000 |  | 
4 | CNC(=O)[C@@H](NC(=O)c1nc(-c2cccc(C(F)(F)F)c2)n2c1CN(C)CCC2)C(C)(C)C [Compound 438, (S)-N-(3,3-dimethyl-1-(methylamino)-1-oxobutan-2-yl)-8-methyl-3-(3-(trifluoromethyl)phenyl)-6,7,8,9-tetrahydro-5H-imidazo[1,5-a][1,4]diazepine-1-carboxamide] | − | > 10000 |  | 
5 | CN1CCCn2c(-c3cc(F)c(F)cc3F)nc(C(=O)N[C@H](C(N)=O)C(C)(C)C)c2C1 [Compound 579, (S)-N-(1-amino-3,3-dimethyl-1-oxobutan-2-yl)-8-methyl-3-(2,4,5-trifluorophenyl)-6,7,8,9-tetrahydro-5H-imidazo[1,5-a][1,4]diazepine-1-carboxamide] | + |  |  | +/− HCB1 [1]: +
6 | CNC(=O)[C@@H](NC(=O)c1nc(-c2cc(C(F)(F)F)cc(C(F)(F)F)c2)n2c1CN(C)CCC2)C(C)(C)C [Compound 599, (S)-3-(3,5-bis(trifluoromethyl)phenyl)-N-(3,3-dimethyl-1-(methylamino)-1-oxobutan-2-yl)-8-methyl-6,7,8,9-tetrahydro-5H-imidazo[1,5-a][1,4]diazepine-1-carboxamide] |  | > 10000 | > 10000 | 
7 | Cc1ccc(-c2nc(C(=O)N[C@H](C(=O)O)C(C)(C)C)c3n2CCCN(C(=O)OC(C)(C)C)C3)c(F)c1 [Compound 516, (S)-2-(8-(tert-butoxycarbonyl)-3-(2-fluoro-4-methylphenyl)-6,7,8,9-tetrahydro-5H-imidazo[1,5-a][1,4]diazepine-1-carboxamido)-3,3-dimethylbutanoic acid] | − | > 10000 |  | 
8 | O=C(NN1CCCCC1)c1nc(-c2ccccc2)n2c1CNCC2 [Compound 44, 3-phenyl-N-(piperidin-1-yl)-5,6,7,8-tetrahydroimidazo[1,5-a]pyrazine-1-carboxamide] | − | > 10000 |  | 
9 | CNC(=O)[C@@H](NC(=O)c1nc(-c2ccc(C(C)(C)C)cc2)n2c1CN(C)CCC2)C(C)(C)C [Compound 414, (S)-3-(4-tert-butylphenyl)-N-(3,3-dimethyl-1-(methylamino)-1-oxobutan-2-yl)-8-methyl-6,7,8,9-tetrahydro-5H-imidazo[1,5-a][1,4]diazepine-1-carboxamide] | − | > 10000 |  | 
10 | CNC(=O)[C@@H](NC(=O)c1nc(-c2cc(Cl)c(F)cc2F)n2c1CN(C)CCC2)C(C)(C)C [Compound 370, (S)-3-(5-chloro-2,4-difluorophenyl)-N-(3,3-dimethyl-1-(methylamino)-1-oxobutan-2-yl)-8-methyl-6,7,8,9-tetrahydro-5H-imidazo[1,5-a][1,4]diazepine-1-carboxamide] | + | > 10000 |  | 
11 | CN1CCCn2c(-c3ccccc3)nc(C(=O)N[C@H](C(=O)NC3CCC3)C(C)(C)C)c2C1 [Compound 480, (S)-N-(1-(cyclobutylamino)-3,3-dimethyl-1-oxobutan-2-yl)-8-methyl-3-phenyl-6,7,8,9-tetrahydro-5H-imidazo[1,5-a][1,4]diazepine-1-carboxamide] |  | > 10000 | > 10000 | 
12 | CNC(=O)[C@@H](NC(=O)c1nc(-c2ccc(Cl)cc2F)n2c1CN(C(=O)OC(C)(C)C)CCC2)C(C)(C)C [Compound 313] | − | > 10000 |  | 
13 | CN1CCCn2c(-c3ccccc3)nc(C(=O)N[C@H](C(=O)O)C(C)(C)C)c2C1 [Compound 471, (S)-3,3-dimethyl-2-(8-methyl-3-phenyl-6,7,8,9-tetrahydro-5H-imidazo[1,5-a][1,4]diazepine-1-carboxamido)butanoic acid] |  | > 10000 | > 10000 | 
14 | C=C(c1ccccc1)c1nc(C(=O)N[C@H](C(=O)NC)C(C)(C)C)c2n1CCCN(C)C2 [Compound 455, (S)-N-(3,3-dimethyl-1-(methylamino)-1-oxobutan-2-yl)-8-methyl-3-(1-phenylvinyl)-6,7,8,9-tetrahydro-5H-imidazo[1,5-a][1,4]diazepine-1-carboxamide] | + | > 10000 |  | 
15 | CNC(=O)[C@@H](NC(=O)c1nc(-c2ccccc2C(N)=O)n2c1CN(C)CCC2)C(C)(C)C [Compound 431, (S)-3-(2-carbamoylphenyl)-N-(3,3-dimethyl-1-(methylamino)-1-oxobutan-2-yl)-8-methyl-6,7,8,9-tetrahydro-5H-imidazo[1,5-a][1,4]diazepine-1-carboxamide] |  | > 10000 | > 10000 | 
16 | CNC(=O)[C@@H](NC(=O)c1nc(C2CC2)n2c1CN(C)CC2)C(C)(C)C [Compound 269, (S)-3-cyclopropyl-N-(3,3-dimethyl-1-(methylamino)-1-oxobutan-2-yl)-7-methyl-5,6,7,8-tetrahydroimidazo[1,5-a]pyrazine-1-carboxamide] | + |  |  | +/− HCB1 [1]: +
17 | CNC(=O)[C@H](NC(=O)c1nc(-c2ccccc2)n2c1CN(C)CC2)C(C)(C)C [Compound 302, (R)-N-(3,3-dimethyl-1-(methylamino)-1-oxobutan-2-yl)-7-methyl-3-phenyl-5,6,7,8-tetrahydroimidazo[1,5-a]pyrazine-1-carboxamide] |  | > 10000 | > 10000 | 
18 | CNC(=O)[C@@H](NC(=O)c1nc(-c2ccccc2)n2c1CN(CCC(C)(C)C)CC2)C(C)(C)C [Compound 54, (S)-N-(3,3-dimethyl-1-(methylamino)-1-oxobutan-2-yl)-7-(3,3-dimethylbutan)-3-phenyl-5,6,7,8-tetrahydroimidazo[1,5-a]pyrazine-1-carboxamide] | − | > 10000 |  | 
19 | CNC(=O)[C@@H](NC(=O)c1nc(-c2ccc(F)c(C(N)=O)c2)n2c1CN(C)CCC2)C(C)(C)C [Compound 429, (S)-3-(3-carbamoyl-4-fluorophenyl)-N-(3,3-dimethyl-1-(methylamino)-1-oxobutan-2-yl)-8-methyl-6,7,8,9-tetrahydro-5H-imidazo[1,5-a][1,4]diazepine-1-carboxamide] | + | > 10000 |  | 
20 | CNC(=O)[C@H](CC(C)(C)C)NC(=O)c1nc(-c2ccc(F)cc2F)n2c1CN(C)CCC2 [Compound 549, (S)-3-(2,4-difluorophenyl)-N-(4,4-dimethyl-1-(methylamino)-1-oxopentan-2-yl)-8-methyl-6,7,8,9-tetrahydro-5H-imidazo[1,5-a][1,4]diazepine-1-carboxamide] |  | > 10000 | > 10000 | 
21 | CNC(=O)[C@@H](NC(=O)c1nc(-c2ccccc2)n2c1CN(C(=O)c1ccccc1)CC2)C(C)(C)C [Compound 127, (S)-7-benzoyl-N-(3,3-dimethyl-1-(methylamino)-1-oxobutan-2-yl)-3-phenyl-5,6,7,8-tetrahydroimidazo[1,5-a]pyrazine-1-carboxamide] |  | > 10000 | > 10000 | 
22 | CNC(=O)[C@@H](NC(=O)c1nc(C2=CCNCC2)n2c1CN(C)CCC2)C(C)(C)C [Compound 460, (S)-N-(3,3-dimethyl-1-(methylamino)-1-oxobutan-2-yl)-8-methyl-3-(1,2,3,6-tetrahydropyridin-4-yl)-6,7,8,9-tetrahydro-5H-imidazo[1,5-a][1,4]diazepine-1-carboxamide] | + |  |  | +/− HCB1 [1]: +
23 | CN1CCn2c(-c3ccccc3)nc(C(=O)NCC(C)(C)CO)c2C1 [Compound 82, N-(3-hydroxy-2,2-dimethylpropyl)-7-methyl-3-phenyl-5,6,7,8-tetrahydroimidazo[1,5-a]pyrazine-1-carboxamide] |  |  |  | EC50 [1, 2]: > 10000 nM; EC50 (rat CB2 receptor (rCB2); groups >100 nM-10 μM and >10 μM, cAMP, CHO-K1 rCB2, read-out: EC50 RCB2): > 10000 nM
24 | CN1CCCn2c(-c3ccccc3)nc(C(=O)N[C@H](C(=O)N(C)C)C(C)(C)C)c2C1 [Compound 557, (S)-N-(1-(dimethylamino)-3,3-dimethyl-1-oxobutan-2-yl)-8-methyl-3-phenyl-6,7,8,9-tetrahydro-5H-imidazo[1,5-a][1,4]diazepine-1-carboxamide] | + | > 10000 |  | 
25 | COC(=O)N1CCn2c(-c3ccccc3)nc(C(=O)NN3CCCCC3)c2C1 [Compound 182, methyl 3-phenyl-1-(piperidin-1-ylcarbamoyl)-5,6-dihydroimidazo[1,5-a]pyrazine-7(8H)-carboxylate] | − |  |  | EC50 [1, 2]: > 10000 nM
26 | CNC(=O)[C@@H]1CCCN1C(=O)c1nc(-c2ccccc2)n2c1CNCCC2 [Compound 602] |  |  | > 10000 | +/− HCB1 [1]: −

— patent publication US7517874B2 (priority 2007, dated 2009)
